# Patent publication US20260262643A1, “HERBICIDAL BENZOXAZINES” (FMC CORPORATION, priority 2022, published 2026)
# Legend:
# barnyardgrass [1] = experiment: Test C preemergence; assay type: in vivo, Echinochloa crusgalli
# Outline: (§1)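 Visual injury ratings on a 0–100 scale (100 = complete control) were made against untreated controls 10 days after treatment in the greenhouse. Compounds, formulated with surfactant in non-phytotoxic solvent, were sprayed on soil preemergence or onto one- to two-leaf plants 2–10 cm tall postemergence.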
# blackgrass [2] = experiment: Test C preemergence; assay type: in vivo, Alopecurus myosuroides
# Outline: as §1
# corn [3] = experiment: Test C preemergence; assay type: in vivo, Zea mays
# Outline: as §1
# green foxtail [4] = experiment: Test C preemergence; assay type: in vivo, Setaria viridis
# Outline: as §1
# kochia [5] = experiment: Test C preemergence; assay type: in vivo, Bassia scoparia
# Outline: as §1
# oat, wild [6] = experiment: Test C preemergence; assay type: in vivo, Avena fatua
# Outline: as §1
# pigweed, palmer [7] = experiment: Test C preemergence; assay type: in vivo, Amaranthus palmeri
# Outline: as §1
# ragweed [8] = experiment: Test C preemergence; assay type: in vivo, Ambrosia artemisiifolia
# Outline: as §1
# ryegrass, Italian [9] = experiment: Test C preemergence; assay type: in vivo, Lolium multiflorum
# Outline: as §1
# soybean [10] = experiment: Test C preemergence; assay type: in vivo, Glycine max
# Outline: as §1
# wheat [11] = experiment: Test C preemergence; assay type: in vivo, Triticum aestivum
# Outline: as §1
# barnyardgrass [12] = experiment: Test C postemergence; assay type: in vivo, Echinochloa crusgalli; settings: 10 days, 0 to 100 scale (0 no effect, 100 complete control)
# Outline: as §1
# blackgrass [13] = experiment: Test C postemergence; assay type: in vivo, Alopecurus myosuroides; settings: 10 days, 0 to 100 scale (0 no effect, 100 complete control)
# Outline: as §1
# corn [14] = experiment: Test C postemergence; assay type: in vivo, Zea mays; settings: 10 days, 0 to 100 scale (0 no effect, 100 complete control)
# Outline: as §1
# green foxtail [15] = experiment: Test C postemergence; assay type: in vivo, Setaria viridis; settings: 10 days, 0 to 100 scale (0 no effect, 100 complete control)
# Outline: as §1
# kochia [16] = experiment: Test C postemergence; assay type: in vivo, Bassia scoparia; settings: 10 days, 0 to 100 scale (0 no effect, 100 complete control)
# Outline: as §1
# oat, wild [17] = experiment: Test C postemergence; assay type: in vivo, Avena fatua; settings: 10 days, 0 to 100 scale (0 no effect, 100 complete control)
# Outline: as §1
# pigweed, palmer [18] = experiment: Test C postemergence; assay type: in vivo, Amaranthus palmeri; settings: 10 days, 0 to 100 scale (0 no effect, 100 complete control)
# Outline: as §1
# ragweed [19] = experiment: Test C postemergence; assay type: in vivo, Ambrosia artemisiifolia; settings: 10 days, 0 to 100 scale (0 no effect, 100 complete control)
# Outline: as §1
# ryegrass, Italian [20] = experiment: Test C postemergence; assay type: in vivo, Lolium multiflorum; settings: 10 days, 0 to 100 scale (0 no effect, 100 complete control)
# Outline: as §1
# soybean [21] = experiment: Test C postemergence; assay type: in vivo, Glycine max; settings: 10 days, 0 to 100 scale (0 no effect, 100 complete control)
# Outline: as §1
# wheat [22] = experiment: Test C postemergence; assay type: in vivo, Triticum aestivum; settings: 10 days, 0 to 100 scale (0 no effect, 100 complete control)
# Outline: as §1
# galium = experiment: Test C postemergence; assay type: in vivo, Galium aparine; settings: 10 days, 0 to 100 scale (0 no effect, 100 complete control)
# Outline: as §1
# horseweed = experiment: Test C postemergence; assay type: in vivo, Erigeron canadensis; settings: 10 days, 0 to 100 scale (0 no effect, 100 complete control)
# Outline: as §1
# barnyardgrass [23] = experiment: Test D flooded paddy test; assay type: in vivo, Echinochloa crus-galli; settings: 250 g ai/ha, applied to paddy water, visual rating after 13 to 14 days, scale 0 to 100 (0 no effect, 100 complete control)
# Outline: (§2)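 Rating scale 0–100 (0 no effect, 100 complete control), visual, versus controls. Readout at 13–14 days after in-water application to 2-leaf plants in pots flooded 3 cm deep.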
# ducksalad = experiment: Test D flooded paddy test; assay type: in vivo, Heteranthera limosa; settings: 250 g ai/ha, applied to paddy water, visual rating after 13 to 14 days, scale 0 to 100 (0 no effect, 100 complete control)
# Outline: as §2
# rice = experiment: Test D flooded paddy test; assay type: in vivo, Oryza sativa; settings: 250 g ai/ha, applied to paddy water, visual rating after 13 to 14 days, scale 0 to 100 (0 no effect, 100 complete control)
# Outline: as §2
# sedge, umbrella = experiment: Test D flooded paddy test; assay type: in vivo, Cyperus difformis; settings: 250 g ai/ha, applied to paddy water, visual rating after 13 to 14 days, scale 0 to 100 (0 no effect, 100 complete control)
# Outline: as §2
# [24] = 500 g ai/ha, preemergence, 0 to 100 scale (0 no effect, 100 complete control)
# [25] = Preemergence, 125 g ai/ha, 0 to 100 scale, 0 no effect, 100 complete control
smiles,measurement,setting,value
COC[C@H]1CN(C(=O)c2cc(-n3cnc(C4CCC4)n3)cc3c2OCCO3)c2cccc(Cl)c2O1 [Compound 380],Barnyardgrass plant response rating,barnyardgrass [1]; [24],80
same,"Plant response rating, Barnyardgrass",barnyardgrass [1]; [25],20
same,Blackgrass plant response rating,blackgrass [2]; [24],30
same,"Plant response rating, Blackgrass",blackgrass [2]; [25],0
same,Corn plant response rating,corn [3]; [24],50
same,"Plant response rating, Corn",corn [3]; [25],0
same,"Foxtail, Green plant response rating",green foxtail [4]; [24],100
same,"Plant response rating, Foxtail, Green",green foxtail [4]; [25],50
same,Kochia plant response rating,kochia [5]; [24],90
same,"Plant response rating, Kochia",kochia [5]; [25],0
same,"Oat, Wild plant response rating","oat, wild [6]; [24]",40
same,"Plant response rating, Oat, Wild","oat, wild [6]; [25]",20
same,"Pigweed, Palmer plant response rating","pigweed, palmer [7]; [24]",100
same,"Plant response rating, Pigweed, Palmer","pigweed, palmer [7]; [25]",100
same,Ragweed plant response rating,ragweed [8]; [24],90
same,"Plant response rating, Ragweed",ragweed [8]; [25],70
same,"Ryegrass, Italian plant response rating","ryegrass, Italian [9]; [24]",80
same,"Plant response rating, Ryegrass, Italian","ryegrass, Italian [9]; [25]",70
same,Soybean plant response rating,soybean [10]; [24],90
same,"Plant response rating, Soybean",soybean [10]; [25],50
same,Wheat plant response rating,wheat [11]; [24],10
same,"Plant response rating, Wheat",wheat [11]; [25],0
same,"Plant response rating, Barnyardgrass","barnyardgrass [12]; 500 g ai/ha, postemergence",50
same,"Plant response rating, Barnyardgrass","barnyardgrass [12]; Postemergence, 125 g ai/ha",20
same,"Plant response rating, Blackgrass","blackgrass [13]; 500 g ai/ha, postemergence",70
same,"Plant response rating, Blackgrass","blackgrass [13]; Postemergence, 125 g ai/ha",20
same,"Plant response rating, Corn","corn [14]; 500 g ai/ha, postemergence",50
same,"Plant response rating, Corn","corn [14]; Postemergence, 125 g ai/ha",10
same,"Plant response rating, Foxtail, Green","green foxtail [15]; 500 g ai/ha, postemergence",80
same,"Plant response rating, Foxtail, Green","green foxtail [15]; Postemergence, 125 g ai/ha",20
same,"Plant response rating, Kochia","kochia [16]; 500 g ai/ha, postemergence",100
same,"Plant response rating, Kochia","kochia [16]; Postemergence, 125 g ai/ha",100
same,"Plant response rating, Oat, Wild","oat, wild [17]; 500 g ai/ha, postemergence",0
same,"Plant response rating, Oat, Wild","oat, wild [17]; Postemergence, 125 g ai/ha",0
same,"Plant response rating, Pigweed, Palmer","pigweed, palmer [18]; 500 g ai/ha, postemergence",100
same,"Plant response rating, Pigweed, Palmer","pigweed, palmer [18]; Postemergence, 125 g ai/ha",90
same,"Plant response rating, Ragweed","ragweed [19]; 500 g ai/ha, postemergence",100
same,"Plant response rating, Ragweed","ragweed [19]; Postemergence, 125 g ai/ha",90
same,"Plant response rating, Ryegrass, Italian","ryegrass, Italian [20]; 500 g ai/ha, postemergence",60
same,"Plant response rating, Ryegrass, Italian","ryegrass, Italian [20]; Postemergence, 125 g ai/ha",40
same,"Plant response rating, Soybean","soybean [21]; 500 g ai/ha, postemergence",100
same,"Plant response rating, Soybean","soybean [21]; Postemergence, 125 g ai/ha",100
same,"Plant response rating, Wheat","wheat [22]; 500 g ai/ha, postemergence",20
same,"Plant response rating, Wheat","wheat [22]; Postemergence, 125 g ai/ha",10
same,"Plant response rating, Galium","galium; 500 g ai/ha, postemergence",100
same,"Plant response rating, Galium","galium; Postemergence, 125 g ai/ha",100
same,"Plant response rating, Horseweed","horseweed; 500 g ai/ha, postemergence",60
same,"Plant response rating, Horseweed","horseweed; Postemergence, 125 g ai/ha",60
same,"Plant response rating, Barnyardgrass (Flood)",barnyardgrass [23],55
same,"Plant response rating, Ducksalad (Flood)",ducksalad,30
same,"Plant response rating, Rice (Flood)",rice,10
same,"Plant response rating, Sedge, Umbrella (Flood)","sedge, umbrella",40
